{"source": "patent US9364551B2", "about": "“Light-enabled drug delivery” (Virginia Commonwealth University, priority 2011, dated 2016)", "key": {"JH-EsoAd1 cells [1]": {"tested_on": "JH-EsoAd1 cells", "experiment": "Concentration dependent cell viability (MTT assay)", "format": "cell-based", "protocol": "(§1) The Esophageal cancer cell line (JH-EsoAd1) was cultured at 37° C. and in a humidified atmosphere of 5% CO2 in RPMI 1640 medium supplemented with 10% fetal bovine serum (FBS). For 96 well plate experiments, the JH-EsoAd1 cells were seeded at 4450 cells/well in 100 uL of media in 96 well plates; experiments were carried out one day after seeding. MTT assays were analyzed using a Bio-Tex μQuant plate reader at 562 nm. FACS was performed BD FACS Aria II using BD FACS Diva software at the VCU Flow Cytometry Core Facility. A minimum of 20,000 cells within the gated region were analyzed. Confocal microscopy images were acquired at room temperature with a Leica confocal laser scanning microscope.\n(§2) JH-EsoAd1 cells were treated with media alone, media supplemented with EDANS (20 μM), or media supplemented with Dox-EDANS (9) (20 μM) in a 96 well clear-bottom, opaque plate. Cells were exposed to light (9 mW/cm^2) for various times (0-40 min) regulated by an aluminum foil mask. During the experiment the plate was kept in ice to reduce the heating by the UV lamp. After the lamp was turned off, the plate was covered with foil and placed at room temperature for an additional 80 min. The media was removed, and the cells were thoroughly washed with media (3×); then 200 μL of fresh media was added to each well. The plates were incubated for 72 hours at 37° C., following which the media was removed and 100 µL of MTT (2 mg/ml) in phosphate buffered saline (PBS) was added to each well. After 3 hours, the MTT solution was removed and replaced with 100 μL of DMSO. The absorbance at 562 nm was analyzed via a plate reader.\nJH-EsoAd1 cells were treated with media supplemented with various concentrations of doxorubicin (0-6.4 μM) or Dox-EDANS (9) (0-16 μM) in a 96 well clear-bottom, opaque plate. Control wells were covered with aluminum foil while the remaining wells were exposed UV light (9 mW/cm^2) for 20 min. The plate was kept in ice during light exposure in order to minimize the heating. After irradiation, the plate was kept at it in the dark for another 100 minutes. […]"}, "[2]": {"experiment": "Photolytic release of doxorubicin from drug conjugate (RP-HPLC)", "format": "physicochemical", "conditions": "PBS buffer, UV light 365 nm (9.0 mW/cm^2), 0.5-30 min", "protocol": "The photolytic release of doxorubicin from the drug conjugate was analyzed using HPLC. The drug conjugate was dissolved in PBS buffer and was exposed to UV light at 365 nm (9.0 mW/cm^2). Aliquots of the reaction mixture were collected at various times and were analyzed on RP-HPLC.\nA solution (0.065 mM in 1 mL) of compound 6 in PBS was placed in a 60×15 mm well plastic dish placed on ice. The solution was irradiated and 70 μL was removed at various time points (0.5, 1, 2, 4, 8, 15, 20, and 30 minutes). Each assay was analyzed on RP-HPLC using isocratic elution of 20% organic eluent (0.1% TFA in acetonitrile) for 5 minutes and then using gradient elution from 20% to 70% for 30 minutes and was monitored at λabs=480 nm. (See FIG. 14)."}, "JH-EsoAd1 cells [3]": {"tested_on": "JH-EsoAd1 cells", "experiment": "Illumination time-dependent toxicity (MTT assay)", "format": "cell-based", "protocol": "as §1\nas §2, with “The plates were incubated for 72 hours at 37° C., following which the media was removed and 100 µL of MTT (2 mg/ml) in phosphate buffered saline (PBS) was added to each well. After 3 hours, the MTT solution was removed and replaced with 100 μL of DMSO.” left out"}, "JH-EsoAd1 cells [4]": {"tested_on": "JH-EsoAd1 cells", "experiment": "Confocal microscopic analysis of permeability", "format": "cell-based", "conditions": "10 μM, light-treated cells vs dark", "protocol": "as §1\nJH-EsoAd1 cells were seeded at 30,000 cells/well on 4 well glass chamber slides, and were treated as above (Flow cytometry analysis). The cells were treated with media alone or media supplemented with 10 μM of EDANS-Dox (6). The plate was placed on ice, and the light treated cells were exposed to UV light (9 mW/cm^2) for 20 minutes. Following the light exposure the plates were kept at room temperature for 100 minutes. The cells were washed extensively with PBS and fixed for 15 min at 37° C. with 3% paraformaldehyde in PBS. Slides were rinsed, dried and mounted under coverslips using Vectashield mounting media (Vector Laboratories, Inc.)."}, "[5]": {"experiment": "CD spectra of photoswitching", "format": "physicochemical"}, "[6]": {"experiment": "HPLC monitoring of azobenzene cis to trans thermal relaxation after illumination", "format": "physicochemical", "conditions": "fit to exponential decay", "excerpt": "We also monitored the switching of the azobenzene by HPLC, since we were able to separate both the cis and trans peptide isomers (FIG. 19B). After illumination the cis isomer reverted to the trans isomer over time. […] The half-life is in line with measurements of similar peptides, but the % cis is lower than the typical 80-95%. Use of a filter to eliminate the longer wavelength light (our light source has a spike of intensity at 405 nm which can promote cis to trans reversion) would enhance photoswitching upon irradiation."}}, "note": "Structures can show the parent of a compound that is named as a salt. Where two headings read alike, the source gives them in different places. Where no end group is shown, it is not given here. [ ]: non-standard residue; d: D form. bis‑iodoacetamido azobenzene = bis-iodoacetamido azobenzene crosslinker; Aib = CC(C)(N)C(=O)O"}
{"compound": "COc1cc(C(C)OC(=O)NC2C[C@H](OC3C[C@](O)(C(=O)CO)Cc4c(O)c5c(c(O)c43)C(=O)c3c(OC)cccc3C5=O)C[C@@H](C)[C@H]2O)c([N+](=O)[O-])cc1OCCCC(=O)NCc1cn(-c2ccc(C(=O)NCCNc3cccc4c(S(=O)(=O)O)cccc34)cc2)nn1", "note": "(stereo partly shown) [EDANS-Dox, Photocaged-Cell Impermeable Dox. Conjugate]", "values": [{"measurement": "IC50", "setting": "JH-EsoAd1 cells [1]; 20 min, illumination 365 nm, 9.0 mW/cm^2, 20 min, read-out: IC50, cytotoxicity upon illumination", "value": "1.6 ± 1", "unit": "µM"}, {"measurement": "toxicity to the cells in the dark", "setting": "JH-EsoAd1 cells [1]; in the dark, at the highest value tested (16 µM)", "value": "not toxic"}, {"measurement": "photolytic release of doxorubicin", "setting": "[2]", "value": "time-depended drug release in the presence of light"}, {"measurement": "Survival of cells in the dark", "setting": "JH-EsoAd1 cells [3]; in the dark", "value": "equivalent to controls with no drug added"}, {"measurement": "Cell survival with increased illumination", "setting": "JH-EsoAd1 cells [3]; light 9 mW/cm^2, 0-40 min", "value": "decreased survival"}, {"measurement": "Dox fluorescence in the nucleus (confocal)", "setting": "JH-EsoAd1 cells [4]", "value": "only light-treated cells show significant Dox fluorescence in the nucleus"}]}
{"compound": "COc1cccc2c1C(=O)c1c(O)c3c(c(O)c1C2=O)C[C@@](O)(C(=O)CO)C[C@@H]3O[C@H]1C[C@H](N)[C@H](O)[C@H](C)O1", "note": "[Dox, Doxorubicin Hydrochloride, reference compound]", "values": [{"measurement": "IC50", "setting": "JH-EsoAd1 cells [1]; Dox alone, read-out: IC50 of Dox alone with the JH-EsoAd1 cells", "value": "1 ± 0.4", "unit": "µM"}]}
{"compound": "*CRACARVXAACRAAARQ (RACARV[Aib]AACRAAARQ; linker (positions not given here) via bis‑iodoacetamido azobenzene; not fully specified (N-terminus, bridges); also: bis-iodoacetamido azobenzene crosslink, Cys pair not given here) [Peptide 1, arginine-rich photoswitchable peptide, cysteines crosslinked with bis-iodoacetamido azobenzene; X=2-aminoisobutyric acid]", "values": [{"measurement": "conformation upon irradiation (CD)", "setting": "[5]; 370 nm light, 25° C., illumination for 5 min", "value": "more α-helical"}, {"measurement": "conformation after removal of light (CD)", "setting": "[5]; after 30 minutes in the dark", "value": "reverted mostly back to the more random coiled state"}, {"measurement": "percentage of cis isomer upon illumination", "setting": "[6]", "value": 55, "unit": "%"}]}
